Assay results published in patent US10456414B2, “Methods for treating HCV” (priority 2011, dated 2019).
Where “and” joins values, the source holds several entries; their conditions need not be identical. Identical values can stand only once. Like-named read-outs stand apart in the source and are kept apart here.

How the values were obtained:
HCV genotype 1a replicon [1] = assay: HCV genotype 1a replicon assay, EC50 (Biological Example 3); assay type: cell-based; settings: Hepatitis C virus, 72 h, 3 days, average ± standard deviation, read-out: EC50
[2] = HCV genotype 1a replicon assay, CC50 by calcein AM (Biological Example 3); assay type: cell-based; settings: human, Huh-7 cells carrying a HCV genotype 1a replicon, genotype 1a replicon cells
Method: (§1) The CC50 assay was performed first.

[3] = test system: 1b Huh-luc replicon cells; assay: Antiviral combination studies with Compound 5, MacSynergy II; assay type: cell-based, HCV; settings: for Interaction: in combination with Compound 5; for Antagonism Volume / Synergy Volume: in combination with Compound 5, mean ± standard deviation
Method: Combination data were analyzed based on the Bliss Independence model using MacSynergy II software. Results of the combination assays were expressed as mean synergy and antagonism volumes (nM^2) calculated at 95% confidence from two independent experiments performed in triplicate.

[4] = test system: Huh-7 cells carrying an HCV genotype 1a replicon; settings: for Cytotoxicity at Highest Concentration of Compound Combinations (% inhibition on cell growth): with 320 nM Compound 10 and the highest concentration of the listed compound
genotype 1b replicon RNA = assay: Replicon RNA suppression, 6 day assay, QRT-PCR
[5] = test system: Genotype 1 b replicon cells; assay: Compound combination replicon cure assay, colony formation; settings: 6 days treatment at the same concentrations, then G418 for 14 days
HCV genotype 1a replicon [6] = assay: HCV genotype 1a replicon assay, EC50 (Biological Example 8); settings: Hepatitis C virus, 72 h
HCV genotype 1a replicon [7] = assay: Antiviral combination studies with Compound 4, MacSynergy II; settings: in combination with Compound 4, mean ± standard deviation
[8] = test system: HCV 1b replicon system (Huh-luc); assay: Antiviral combination studies with Compound 6, MacSynergy II; settings: for Interaction: in combination with Compound 6; for Antagonism Volume / Synergy Volume: in combination with Compound 6, mean ± standard deviation
HCV genotype 1a replicon [9] = assay: Antiviral combination studies with Compound 10, MacSynergy II; settings: in combination with Compound 10
[10] = test system: Huh-7 cells carrying a HCV genotype 1a replicon; assay: Cytotoxicity combination studies with Compound 4, MacSynergy II; settings: for Interaction (cytotoxicity): in combination with Compound 4; for Antagonism Volume (cytotoxicity) / Synergy Volume (cytotoxicity): in combination with Compound 4, mean ± standard deviation
[11] = HCV genotype 1a replicon assay, CC50 by calcein AM (Biological Example 8); settings: human, Huh-7 cells carrying an HCV genotype 1a replicon
[12] = test system: Huh-7 cells carrying a HCV genotype 1a replicon; assay: HCV genotype 1a replicon assay, CC50 by calcein AM (Biological Example 3); assay type: cell-based; settings: genotype 1a replicon cells, 3 days, read-out: CC50
Method: as §1

GT1b wild-type replicon = assay: microbe, parasite or virus in culture; assay type: cell-based, HCV; settings: Hepatitis C virus, 72 h, 3 days
[13] = test system: GT1b NS5B S282T mutant replicon; assay: microbe, parasite or virus in culture; assay type: cell-based, HCV; settings: for EC50: Hepatitis C virus, GT1B, 72 h, read-out: EC50 S282T
GT2a wild-type replicon = assay: microbe, parasite or virus in culture; assay type: cell-based, HCV; settings: Hepatitis C virus, 72 h, 3 days
[14] = test system: GT2a NS5B S282T mutant replicon; assay: microbe, parasite or virus in culture; assay type: cell-based, HCV; settings: for EC50: Hepatitis C virus, GT2A, 72 h, read-out: EC50 S282T
[15] = test system: GT2b wild-type chimeric replicon (2b NS5B in GT1b backbone); assay: microbe, parasite or virus in culture; assay type: cell-based, HCV; settings: Hepatitis C virus, 72 h, read-out: EC50 WT
[16] = test system: GT2b NS5B S282T mutant chimeric replicon; assay: microbe, parasite or virus in culture; assay type: cell-based, HCV; settings: for EC50: Hepatitis C virus, GT2B, 72 h, read-out: EC50 S282T
[17] = test system: GT3a wild-type chimeric replicon (3a NS5B in GT1b backbone); assay: microbe, parasite or virus in culture; assay type: cell-based, HCV; settings: Hepatitis C virus, 72 h, read-out: EC50 WT
[18] = test system: GT3a NS5B S282T mutant chimeric replicon; assay: microbe, parasite or virus in culture; assay type: cell-based, HCV; settings: for EC50: Hepatitis C virus, GT3A, 72 h, read-out: EC50 S282T
[19] = test system: GT4a wild-type chimeric replicon (4a NS5B in GT1b backbone); assay: microbe, parasite or virus in culture; assay type: cell-based, HCV; settings: Hepatitis C virus, 72 h, read-out: EC50 WT
[20] = test system: GT4a NS5B S282T mutant chimeric replicon; assay: microbe, parasite or virus in culture; assay type: cell-based, HCV; settings: for EC50: Hepatitis C virus, GT4A, 72 h, read-out: EC50 S282T
[21] = test system: NS5B S282T mutant replicons; assay: microbe, parasite or virus in culture; assay type: cell-based, HCV; settings: Hepatitis C virus, read-out: EC50 values for S282T across all five genotypes
[22] = test system: panel of NS5A mutant replicons; assay: Transient replicon assay, panel of NS5A mutant replicons; assay type: cell-based, HCV; settings: seven NS5A mutants, genotype 1a
Source text: NS5A mutant replicons were created by synthesizing a sequence encoding the first 149 amino acids of NS5A containing the desired mutation flanked by a 5′ and 3′ BsrGI and EcoRI site, respectively (Genscript, Piscataway, N.J.). Synthesized fragments were then cloned by standard molecular biology techniques into a 1a Rluc replicon plasmid modified to enable cloning into unique BsrGI and EcoRI restriction sites. Mutations were confirmed by DNA sequencing.
RNA was transfected into Huh-lunet cells using the method of Lohmann et al. (Lohmann et al., Science 1999; 285 (5424):110-3) Briefly, cells were trypsinized and washed twice with PBS. A suspension of 4×10^6 cells in 400 μL of PBS were mixed with 5 μg of RNA and subjected to electroporation using settings of 960 μF and 270 V. Cells were transferred into 40 mL of pre-warmed culture medium and then seeded into 96-well or 384-well plates. Compounds were 3-fold serially diluted in 100% DMSO and added to cells to achieve a final DMSO concentration of 0.5%. Cells were treated for three days after which culture media were removed, cells were lysed, and Renilla luciferase activity was quantified using commercially available reagents (Promega) and a Victor or Envision instrument (Perkin Elmer, Waltham, Mass.).
Resistance fold changes were calculated as the ratio of mutant to wild-type replicon EC50. […]

[23] = test system: Genotype 1a replicon, NS5A M28T
[24] = test system: Genotype 1a replicon, NS5A Q30H
[25] = test system: Genotype 1a replicon, NS5A Q30R
[26] = test system: Genotype 1a replicon, NS5A Q30E
[27] = test system: Genotype 1a replicon, NS5A L31M
[28] = test system: Genotype 1a replicon, NS5A Y93H
[29] = human, dose of 800 mg/day; cited from earlier work

Compound	EC50 (HCV genotype 1a replicon [1])	Interaction [3]	Antagonism Volume [3]	Synergy Volume [3]	Cytotoxicity at Highest Concentration of Compound Combinations (% inhibition on cell growth) [4]	EC50 (HCV genotype 1a replicon [6])	Antagonism Volume (HCV genotype 1a replicon [7])	Synergy Volume (HCV genotype 1a replicon [7])	Interaction [8]	Antagonism Volume [8]	Synergy Volume [8]	Interaction (HCV genotype 1a replicon [9])	Interaction (cytotoxicity) [10]	Antagonism Volume (cytotoxicity) [10]	Synergy Volume (cytotoxicity) [10]	CC50 at 3 days [11]	CC50 [12]	EC50 (GT1b wild-type replicon)	EC50 [13]	EC50 (GT2a wild-type replicon)	other results
CC[C@@H]1C[C@]1(NC(=O)[C@@H]1C[C@@H](Oc2cc(-c3csc(NC(C)C)n3)nc3c(Cl)c(OCCN4CCOCC4)ccc23)CN1C(=O)[C@@H](NC(=O)O[C@@H]1C[C@@H]2C[C@@H]2C1)C(C)(C)C)C(=O)O [Compound 3]	49 ± 18 nM	Additive	−2 ± 2 nM^2	19 ± 13 nM^2	2.0 ± 3.5%	46 nM	−3 ± 2 nM^2%	26 ± 6 nM^2%	Strong Synergy	−0.1 ± 0.2 nM^2	132 nM^2 and 132 ± 44 nM^2	Additive	Additivity (Additivity: ≤25 and >−25 nM^2%)	0 ± 0 nM^2%	3 ± 5 nM^2%	> 22200 nM	–	–	–	–	CC50 at 3 days [2]: > 22200 nM; Replicon RNA log drop (genotype 1b replicon RNA): −0.9 log; Compound concentration able to induce replicon RNA 1-1.5 log drop in a 6 day assay (genotype 1b replicon RNA; genotype 1b replicon cells, 6 days): 26.25 nM; Replicon RNA log drop (genotype 1b replicon RNA; single compound at the listed concentration, 6 days, relative to DMSO control (Table XIV)): −0.9 log; Uncured colony number [5]: 989
CC1=CC[C@H](C(=O)N(c2cc(C#CC(C)(C)C)sc2C(=O)O)[C@H]2CC[C@](O)(CO[C@H]3CCOC3)CC2)CC1 [Compound 5, 5-(3,3-dimethylbut-1-yn-1-yl)-3-[(cis-4-hydroxy-4-{[(3S)-tetrahydrofuran-3-yloxy]methyl}cyclohexyl){[(1R)-4-methylcyclohex-3-en-1-yl]carbonyl}amino]thiophene-2-carboxylic acid]	15 ± 2.4 nM	–	–	–	4.3 ± 2.9%	14 nM	−1 ± 3 nM^2%	26 ± 28 nM^2%	–	–	–	Additive	Additivity (Additivity: ≤25 and >−25 nM^2%)	−10 ± 7 nM^2%	15 ± 8 nM^2%	> 44400 nM	> 44400 nM	–	–	–	–
CC(C)OC(=O)[C@H](C)N[P@](=O)(OC[C@H]1O[C@@H](n2ccc(=O)[nH]c2=O)[C@](C)(F)[C@@H]1O)Oc1ccccc1 [Compound 10]	–	–	–	–	–	39 nM	–	–	–	–	–	–	–	–	–	> 82400 nM	–	21.5 nM	189 nM	147 nM	Fold change ([13]; GT1b, S282T EC50 versus corresponding wild type): 8.8; Fold change ([14]; GT2a, S282T EC50 versus corresponding wild type): 2.4; EC50 [14]: 346 nM; EC50 [15]: 13.3 nM; Fold change ([16]; GT2b, S282T EC50 versus corresponding wild type): 16.2; EC50 [16]: 216 nM; EC50 [17]: 33.9 nM; Fold change ([18]; GT3a, S282T EC50 versus corresponding wild type): 3.5; EC50 [18]: 117 nM; EC50 [19]: 35.8 nM; Fold change ([20]; GT4a, S282T EC50 versus corresponding wild type): 6.1; EC50 [20]: 218 nM; EC50 [21]: 117 to 346 nM; increase (shift) in EC50 for NS5A mutants [22]: no significant shift; Fold Shift in EC50 (DRM EC50/1a-H77 EC50) [23]: 0.9; Fold Shift in EC50 (DRM EC50/1a-H77 EC50) [24]: 1.0; Fold Shift in EC50 (DRM EC50/1a-H77 EC50) [25]: 0.8; Fold Shift in EC50 (DRM EC50/1a-H77 EC50) [26]: 1.0; Fold Shift in EC50 (DRM EC50/1a-H77 EC50) [27]: 1.1; Fold Shift in EC50 (DRM EC50/1a-H77 EC50) [28]: 0.7
NC(=O)c1ncn([C@@H]2O[C@H](CO)[C@@H](O)[C@H]2O)n1 [Ribavirin, 1-β-D-ribofuranosyl-1H-1,2,4-Triazole-3-carboxamide, reference compound]	36500 ± 17500 nM	Additive	−12 ± 9 nM^2	12 ± 8 nM^2	–	33600 nM	−43 nM^2% and −43 ± 20 nM^2%	1 ± 1 nM^2%	Moderate Synergy	−0.5 ± 0.1 nM^2	61 nM^2 and 61 ± 0.5 nM^2	Minor	–	–	–	> 88800 nM	> 88800 nM	6.6 nM	1.6 nM	8.3 nM	EC50 [14]: 0.6 nM; EC50 [15]: 2.6 nM; EC50 [16]: 0.6 nM; EC50 [17]: 6.7 nM; EC50 [18]: 1 nM; EC50 [19]: 6.2 nM; EC50 [20]: 0.6 nM; cell viability ([4]; combined with Compound 10, highest combined concentrations tested): greater than 85%; steady-state plasma concentration [29]: 6 to 11 µM
